Data from the supplement of paper PMC10307832.

Experiments:
Assay in all cases: relative viability (nuclei count vs DMSO), 5 days (fraction); higher = more cells survive
[1] = compound: CCN1CCN(c2ccc(Nc3cc(N(C)C(=O)Nc4c(Cl)c(OC)cc(OC)c4Cl)ncn3)cc2)CC1 [BGJ398] + N=C(N)NC(=N)NCCc1ccccc1 [Phenformin] (partner 250 µM)
Summary of the method: (§1)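 After 5 days of treatment, lung cancer cells in 1536-well plates were fixed and stained in a single step (final 0.05% Triton X-100, 1% formaldehyde, 1 ug/ml Hoechst) and their nuclei counted on 4× images. Treatment had been applied by pin tool the day after seeding as one drug alone or as a fixed anchor-drug dose with five library-drug doses (not always all listed) in √10 steps. Relative viability is the nuclei count of treated wells divided by that of vehicle wells, and values are medians of duplicate plates.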

[2] = compound: C1=CC2=NC=CN=C2C=C1/C=C/3\C(=O)NC(=O)S3 + CC(C)C[C@H](NC(=O)[C@H](Cc1ccccc1)NC(=O)c1cnccn1)B(O)O [Bortezomib] (partner 0.002 µM)
Summary of the method: as §1

[3] = compound: C1=CC2=NC=CN=C2C=C1/C=C/3\C(=O)NC(=O)S3 + Nc1nc2[nH]cc(CCc3ccc(C(=O)N[C@@H](CCC(=O)O)C(=O)O)cc3)c2c(=O)[nH]1 [Pemetrexed] (partner 0.2 µM)
Summary of the method: as §1

[4] = compound: C1=CC2=NC=CN=C2C=C1/C=C/3\C(=O)NC(=O)S3 + CC1(C)CCC(c2ccc(Cl)cc2)=C(CN2CCN(c3ccc(C(=O)NS(=O)(=O)c4ccc(N[C@H](CCN5CCOCC5)CSc5ccccc5)c(S(=O)(=O)C(F)(F)F)c4)cc3)CC2)C1 [Navitoclax] (partner 0.5 µM)
Summary of the method: as §1

Cell Line | relative viability ([1]; first compound 0.01 µM) | relative viability ([1]; first compound 0.03162 µM) | relative viability ([1]; first compound 0.1 µM) | relative viability ([1]; first compound 0.3162 µM) | relative viability ([1]; first compound 1 µM) | relative viability ([2]; first compound 0.02 µM) | relative viability ([2]; first compound 0.06325 µM) | relative viability ([2]; first compound 0.2 µM) | relative viability ([2]; first compound 0.6325 µM) | relative viability ([2]; first compound 2 µM) | relative viability ([3]; first compound 0.02 µM) | relative viability ([3]; first compound 0.06325 µM) | relative viability ([3]; first compound 0.2 µM) | relative viability ([3]; first compound 0.6325 µM) | relative viability ([3]; first compound 2 µM) | relative viability ([4]; first compound 0.02 µM) | relative viability ([4]; first compound 0.06325 µM) | relative viability ([4]; first compound 0.2 µM) | relative viability ([4]; first compound 0.6325 µM) | relative viability ([4]; first compound 2 µM)
NCI-H1915 | 0.374 | 0.367 | 0.365 | 0.354 | 0.367 | 0.985 | 1.05 | 1.05 | 0.99 | 1 | 0.463 | 0.456 | 0.489 | 0.478 | 0.483 | 0.757 | 0.796 | 0.806 | 0.732 | 0.797
NCI-H1975 | 0.415 | 0.409 | 0.475 | 0.412 | 0.356 | 0.355 | 0.365 | 0.401 | 0.368 | 0.36 | 0.266 | 0.297 | 0.299 | 0.288 | 0.294 | 0.998 | 1.12 | 1.04 | 0.974 | 0.981
NCI-H1993 | 0.554 | 0.485 | 0.479 | 0.523 | 0.575 | 0.892 | 1.02 | 1.05 | 0.952 | 0.724 | 0.528 | 0.665 | 0.607 | 0.54 | 0.449 | 0.759 | 0.982 | 0.921 | 0.956 | 0.743
NCI-H2009 | 0.454 | 0.511 | 0.437 | 0.374 | 0.45 | 0.954 | 1.07 | 1.11 | 0.969 | 0.801 | 1.05 | 1.1 | 1.01 | 1.01 | 1.18 | 1.2 | 1.2 | 1.15 | 1.21 | 1.23
NCI-H2023 | 0.409 | 0.483 | 0.434 | 0.398 | 0.371 | 0.924 | 0.923 | 1.03 | 0.875 | 0.645 | 0.251 | 0.269 | 0.24 | 0.214 | 0.182 | 1.01 | 1.11 | 1.02 | 1.02 | 0.978
NCI-H2085 | 0.668 | 0.663 | 0.817 | 0.782 | 0.807 | 1.03 | 1.07 | 1.02 | 0.824 | 1.01 | 0.907 | 0.917 | 0.92 | 0.892 | 0.807 | 1.09 | 0.975 | 1.17 | 1.13 | 1.08
NCI-H2087 | 0.44 | 0.438 | 0.507 | 0.386 | 0.494 | 0.831 | 0.942 | 0.68 | 0.809 | 0.805 | 0.612 | 0.734 | 0.632 | 0.623 | 0.615 | 0.88 | 1.2 | 1.07 | 1.04 | 0.96
NCI-H2126 | 0.505 | 0.57 | 0.541 | 0.547 | 0.475 | 1.08 | 1.16 | 1.11 | 1.08 | 0.716 | 0.65 | 0.772 | 0.684 | 0.713 | 0.463 | 0.739 | 0.909 | 0.914 | 0.842 | 0.727
NCI-H2228 | 0.328 | 0.32 | 0.243 | 0.299 | 0.28 | 0.948 | 0.881 | 1.23 | 1.06 | 0.82 | 0.358 | 0.34 | 0.332 | 0.293 | 0.321 | 1.15 | 0.868 | 1.44 | 0.671 | 0.607
NCI-H2347 | 0.292 | 0.602 | 0.507 | 0.434 | 0.496 | 0.769 | 1.17 | 1.05 | 0.932 | 0.926 | 0.417 | 0.447 | 0.427 | 0.444 | 0.408 | 0.756 | 0.443 | 0.904 | 0.863 | 0.734
NCI-H2405 | 0.394 | 0.432 | 0.377 | 0.394 | 0.371 | 0.96 | 1.06 | 0.991 | 1 | 0.782 | 1.1 | 1.28 | 1.22 | 1.05 | 0.859 | 0.751 | 1.14 | 0.938 | 0.947 | 0.755
NCI-H3122 | 0.353 | 0.387 | 0.373 | 0.339 | 0.347 | 1.02 | 1.01 | 1 | 1.08 | 0.975 | 0.224 | 0.216 | 0.205 | 0.2 | 0.195 | 1.06 | 0.997 | 0.973 | 1.01 | 1.08
PC-3 [JPC-3] | 0.468 |  | 0.445 | 0.418 | 0.46 | 0.735 | 0.853 | 0.879 | 0.851 | 0.852 | 1.19 | 1.17 | 1.2 | 1.19 | 1.23 | 0.744 | 0.765 | 0.783 | 0.749 | 0.766
PC-14 | 0.586 |  | 0.642 |  | 0.369 | 0.726 | 0.816 | 0.81 | 0.882 | 0.81 | 0.138 | 0.148 | 0.156 | 0.131 | 0.145 | 0.871 | 1 | 1 | 1 | 1.08
RERF-LC-KJ | 0.449 | 0.422 | 0.416 | 0.432 | 0.493 | 1.25 | 1.17 | 1.23 | 1.14 | 1.11 | 0.525 | 0.501 | 0.465 | 0.489 | 0.455 | 0.69 | 0.897 | 1.01 | 0.863 | 0.826
SK-LU-1 | 0.5 | 0.556 | 0.58 | 0.367 | 0.491 | 1.37 | 1.32 | 1.44 | 1.29 | 0.783 | 1.03 | 1.1 | 1.02 | 0.967 | 0.798 | 0.84 | 0.765 | 1.02 | 0.854 | 0.868
SW 1573 | 0.312 | 0.456 | 0.405 | 0.407 | 0.368 | 0.996 | 1.21 | 1.17 | 0.835 | 0.95 | 0.883 | 1.1 | 0.802 | 0.862 | 0.711 | 0.879 | 1.05 | 1.05 | 0.866 | 0.945
